Results published in ChEMBL document CHEMBL1143868, “Synthesis, SAR, and Evaluation of 4-[2,4-Difluoro-5-(cyclopropylcarbamoyl)phenylamino]pyrrolo[2,1-f][1,2,4]triazine-based VEGFR-2 kinase inhibitors” (Bioorg Med Chem Lett, 2008).

Columns and labels:
Liver microsomes = assay: Metabolic stability in human liver microsomes per mg of protein at 3 uM after 10 mins; format: ADME, Microsome
[1] = AUC (0 to 4 hrs) in mouse at 50 mg/kg, po; format: ADME, organism-based; parameters: time < 4 hr, dose 50 mg/kg, route oral; settings: plasma
[2] = Cmax in mouse at 50 mg/kg, po; format: ADME, organism-based; parameters: dose 50 mg/kg, route oral; settings: in vivo
[3] = Tmax in mouse at 50 mg/kg, po; format: ADME, organism-based; parameters: dose 50 mg/kg, route oral; settings: in vivo
Liver = assay: Metabolic stability in mouse liver microsomes per mg of protein at 3 uM after 10 mins; format: ADME, Microsome

Stability (Liver microsomes) [nmol/min/mg] | AUC(0-t) at 4 h [1] [µM·h] | Cmax [2] [µM] | Tmax [3] [h] | Stability (Liver) [nmol/min/mg] | SMILES
0.023 | 53.2 | 15 | 4 | 0.007 | CC(C)c1c(-c2nnc(OC3CCNCC3)o2)cn2ncnc(Nc3cc(C(=O)NC4CC4)c(F)cc3F)c12
0.012 | 0.2 | 0.1 | 0.5 | 0 | CC(C)c1c(-c2nnc(NCCCCN)o2)cn2ncnc(Nc3cc(C(=O)NC4CC4)c(F)cc3F)c12
0.098 | 21.7 | 8 | 1 | 0.02 | CC(C)c1c(-c2nnc(NCCCN(C)C)o2)cn2ncnc(Nc3cc(C(=O)NC4CC4)c(F)cc3F)c12
